Results as given in ChEMBL document CHEMBL3864126, “Identification of SENP1 inhibitors through in silico screening and rational drug design” (Eur J Med Chem, 2016).

Biological target: T1, Sentrin-specific protease 1 (Homo sapiens, UniProt Q9P0U3)
T1 sequence (Q9P0U3 whole entry): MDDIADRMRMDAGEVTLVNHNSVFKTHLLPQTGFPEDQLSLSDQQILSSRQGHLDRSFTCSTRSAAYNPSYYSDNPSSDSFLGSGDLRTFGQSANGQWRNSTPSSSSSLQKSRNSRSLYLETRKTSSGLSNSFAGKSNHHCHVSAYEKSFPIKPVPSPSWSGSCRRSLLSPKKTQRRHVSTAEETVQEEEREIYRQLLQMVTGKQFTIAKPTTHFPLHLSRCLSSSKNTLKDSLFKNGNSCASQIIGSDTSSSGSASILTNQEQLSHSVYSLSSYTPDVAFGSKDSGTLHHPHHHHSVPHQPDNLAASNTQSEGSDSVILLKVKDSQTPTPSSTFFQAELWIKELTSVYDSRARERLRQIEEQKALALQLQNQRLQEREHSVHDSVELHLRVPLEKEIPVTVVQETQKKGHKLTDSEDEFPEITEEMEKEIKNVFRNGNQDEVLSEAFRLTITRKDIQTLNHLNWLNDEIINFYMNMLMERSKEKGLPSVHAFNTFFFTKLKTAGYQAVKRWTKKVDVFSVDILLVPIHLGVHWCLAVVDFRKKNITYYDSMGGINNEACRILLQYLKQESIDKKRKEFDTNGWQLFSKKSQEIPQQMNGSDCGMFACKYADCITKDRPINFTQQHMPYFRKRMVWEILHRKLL
Test: Inhibition of SENP1 catalytic domain (419 to 644 residues) (unknown origin) expressed in Escherichia coli BL21 (DE3) assessed as reduction in deSUMOylation preincubated for 10 mins followed by addition of RanGAP-SUMO as substrate measured after 25 mins by coomassie staining-based SDS-PAGE analysis

IC50: 14 µM
SMILES: O=C(N/N=C/C1CCCCC1)c1cc(Cl)ccc1O
